Test results as given in the supplement of paper PMC9663587.

Columns and labels:
[1] = compound: CCOc1cc2ncc(C#N)c(Nc3ccc(OCc4ccccn4)c(Cl)c3)c2cc1NC(=O)/C=C/CN(C)C [Neratinib/HKI272]; test: increase in dead-cell fraction, 72 h; higher = more death;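 also: breast cancer cell lines in 384-well plates, stained with Hoechst plus LIVE/DEAD far red dye and imaged, cells above an LDR intensity threshold counted dead, Hoechst-negative corpses included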
[2] = compound: CC(=O)c1c(C)c2cnc(Nc3ccc(N4CCN(CCOCCOCCOCCNC(=O)COc5cccc6c5C(=O)N(C5CCC(=O)NC5=O)C6=O)CC4)cn3)nc2n(C2CCCC2)c1=O [BSJ-03-123]; test: as above
[3] = compound: CC(=O)c1c(C)c2cnc(Nc3ccc(N4CCNCC4)cn3)nc2n(C2CCCC2)c1=O; test: as above
[4] = compound: CCc1cnn2c(NCc3ccc[n+]([O-])c3)cc(N3CCCC[C@H]3CCO)nc12; test: as above
[5] = compound: C=CC(=O)Nc1ccc(C(=O)Nc2[nH]nc3c2CN(C(=O)N[C@H](CN(C)C)c2ccccc2)C3(C)C)cc1 [YKL-5-124]; test: as above
[6] = compound: T1, CN(C)C/C=C/C(=O)Nc1ccc(C(=O)N2CCC[C@@H](Nc3ncc(Cl)c(-c4c[nH]c5ccccc45)n3)C2)cc1 [THZ531]; test: as above
[7] = compound: T2, CN(C)C/C=C/C(=O)Nc1ccc(C(=O)Nc2cccc(Nc3ncc(Cl)c(-c4c[nH]c5ccccc45)n3)c2)cc1 [THZ1]; test: as above
[8] = compound: CN(C)C(=O)c1cc2cnc(Nc3ccc(N4CCNCC4)cn3)nc2n1C1CCCC1 [LEE011/Ribociclib]; test: as above
[9] = compound: CO[C@@H](C)Cn1c(=O)n(C)c2cnc3ccc(-c4cncc(C(C)(C)O)c4)cc3c21
[10] = compound: CC(=O)Nc1cccc(-n2c(=O)n(C3CC3)c(=O)c3c(Nc4ccc(I)cc4F)n(C)c(=O)c(C)c32)c1
[11] = compound: Cc1nc(NC(=O)N2CCC[C@H]2C(N)=O)sc1-c1ccnc(C(C)(C)C(F)(F)F)c1 [Alpelisib/BYL719]
[12] = compound: CCCCOc1c(C(=O)c2c(F)cc(C)cc2F)c[nH]c2nncc1-2
[13] = compound: C=CCn1c(=O)c2cnc(Nc3ccc(N4CCN(C)CC4)cc3)nc2n1-c1cccc(C(C)(C)O)n1 [AZD1775]
[14] = compound: COc1ccc2c(c1)[C@]1(C[C@H]1c1ccc3c(/C=C/c4ccc(CN5C[C@@H](C)O[C@@H](C)C5)cc4)n[nH]c3c1)C(=O)N2
[15] = compound: T1, THZ531
[16] = compound: T2, THZ1
[17] = compound: CC(C)Nc1cc(-c2c[nH]c(C(=O)N[C@H](CO)c3cccc(Cl)c3)c2)c(Cl)cn1 [BVD523]
[18] = compound: CNCc1ccc(-c2[nH]c3cc(F)cc4c3c2CCNC4=O)cc1 [Rucaparib]
[19] = compound: COc1cc2c(Oc3ccc4[nH]c(C)cc4c3F)ncnc2cc1OCCCN1CCCC1 [Cediranib/AZD2171]
[20] = compound: CN1CCN(CCOc2cc(OC3CCOCC3)c3c(Nc4c(Cl)ccc5c4OCO5)ncnc3c2)CC1 [Saracatinib/AZD0530]
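For GR50, 72 h in this document: breast cancer and non-malignant breast epithelial cell lines, Deep Dye Drop or Dye Drop imaging, nine half-log doses, GR normalized to time-zero plates and DMSO-only controls.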

Which “increase in dead-cell fraction” value ([1]; 0.0003162 µM) does the source give for SUM190PT here?
The value was -0.0031.

What about the “increase in dead-cell fraction” value ([1]; 0.001 µM) of the same cell line?
The value was -0.0024.

And the “increase in dead-cell fraction” value ([1]; 0.003162 µM)?
Its value is -0.0097.

And the “increase in dead-cell fraction” value ([1]; 0.01 µM)?
The value was 0.0037.

What about the “increase in dead-cell fraction” value ([1]; 0.03162 µM) of the same cell line?
Its value is -0.0082.

What about the “increase in dead-cell fraction” value ([1]; 0.1 µM) of the same cell line?
Its value is 0.0008.

And the “increase in dead-cell fraction” value ([1]; 0.3162 µM)?
Its value is 0.0036.

And the “increase in dead-cell fraction” value ([1]; 1 µM)?
Its value is 0.0415.

And the “increase in dead-cell fraction” value ([1]; 3.162 µM)?
Its value is 0.0395.

And the “increase in dead-cell fraction” value ([2]; 0.001 µM)?
Its value is 0.0016.

And the “increase in dead-cell fraction” value ([2]; 0.003162 µM)?
The value was -0.0004.

What about the “increase in dead-cell fraction” value ([2]; 0.01 µM) of the same cell line?
Its value is 0.0082.

What about the “increase in dead-cell fraction” value ([2]; 0.03162 µM) of the same cell line?
Its value is 0.018.

And the “increase in dead-cell fraction” value ([2]; 0.1 µM)?
Its value is 0.0114.

And the “increase in dead-cell fraction” value ([2]; 0.3162 µM)?
Its value is 0.0142.

What about the “increase in dead-cell fraction” value ([2]; 1 µM) of the same cell line?
Its value is 0.0139.

And the “increase in dead-cell fraction” value ([2]; 3.162 µM)?
The value was 0.0169.

And the “increase in dead-cell fraction” value ([2]; 10 µM)?
Its value is 0.243.

What about the “increase in dead-cell fraction” value ([3]; 0.0003162 µM) of the same cell line?
The value was -0.0078.

And the “increase in dead-cell fraction” value ([3]; 0.001 µM)?
The value was -0.0072.

What about the “increase in dead-cell fraction” value ([3]; 0.003162 µM) of the same cell line?
Its value is -0.0095.

What about the “increase in dead-cell fraction” value ([3]; 0.01 µM) of the same cell line?
Its value is 0.0012.

And the “increase in dead-cell fraction” value ([3]; 0.03162 µM)?
The value was -0.0013.

What about the “increase in dead-cell fraction” value ([3]; 0.1 µM) of the same cell line?
Its value is 0.0119.

What about the “increase in dead-cell fraction” value ([3]; 0.3162 µM) of the same cell line?
Its value is 0.0131.

What about the “increase in dead-cell fraction” value ([3]; 1 µM) of the same cell line?
Its value is 0.0095.

And the “increase in dead-cell fraction” value ([3]; 3.162 µM)?
Its value is 0.0058.

And the “increase in dead-cell fraction” value ([4]; 0.0001 µM)?
The value was 0.0034.

And the “increase in dead-cell fraction” value ([4]; 0.0003162 µM)?
The value was 0.0047.

And the “increase in dead-cell fraction” value ([4]; 0.001 µM)?
The value was -0.0024.

And the “increase in dead-cell fraction” value ([4]; 0.003162 µM)?
The value was -0.0088.

And the “increase in dead-cell fraction” value ([4]; 0.01 µM)?
The value was -0.0098.

What about the “increase in dead-cell fraction” value ([4]; 0.03162 µM) of the same cell line?
The value was 0.201.

And the “increase in dead-cell fraction” value ([4]; 0.1 µM)?
The value was 0.449.

And the “increase in dead-cell fraction” value ([4]; 0.3162 µM)?
The value was 0.477.

What about the “increase in dead-cell fraction” value ([4]; 1 µM) of the same cell line?
Its value is 0.49.

And the “increase in dead-cell fraction” value ([5]; 0.001 µM)?
Its value is 0.0072.

What about the “increase in dead-cell fraction” value ([5]; 0.003162 µM) of the same cell line?
The value was 0.0099.

What about the “increase in dead-cell fraction” value ([5]; 0.01 µM) of the same cell line?
Its value is 0.0098.

And the “increase in dead-cell fraction” value ([5]; 0.03162 µM)?
Its value is 0.0132.

What about the “increase in dead-cell fraction” value ([5]; 0.1 µM) of the same cell line?
The value was 0.005.

What about the “increase in dead-cell fraction” value ([5]; 0.3162 µM) of the same cell line?
The value was 0.0169.

What about the “increase in dead-cell fraction” value ([5]; 1 µM) of the same cell line?
Its value is 0.0033.

What about the “increase in dead-cell fraction” value ([5]; 3.162 µM) of the same cell line?
Its value is 0.0008.

What about the “increase in dead-cell fraction” value ([5]; 10 µM) of the same cell line?
Its value is 0.244.

And the “increase in dead-cell fraction” value ([6]; 0.0001 µM)?
Its value is -0.0012.

And the “increase in dead-cell fraction” value ([6]; 0.0003162 µM)?
Its value is 0.0006.

And the “increase in dead-cell fraction” value ([6]; 0.001 µM)?
Its value is 0.0192.

And the “increase in dead-cell fraction” value ([6]; 0.003162 µM)?
Its value is 0.0068.

What about the “increase in dead-cell fraction” value ([6]; 0.01 µM) of the same cell line?
The value was -0.0033.

What about the “increase in dead-cell fraction” value ([6]; 0.03162 µM) of the same cell line?
The value was 0.0143.

And the “increase in dead-cell fraction” value ([6]; 0.1 µM)?
The value was 0.0893.

What about the “increase in dead-cell fraction” value ([6]; 0.3162 µM) of the same cell line?
Its value is 0.636.

What about the “increase in dead-cell fraction” value ([6]; 1 µM) of the same cell line?
Its value is 0.44.

What about the “increase in dead-cell fraction” value ([7]; 0.0001 µM) of the same cell line?
Its value is -0.0051.

What about the “increase in dead-cell fraction” value ([7]; 0.0003162 µM) of the same cell line?
Its value is -0.0051.

What about the “increase in dead-cell fraction” value ([7]; 0.001 µM) of the same cell line?
Its value is -0.003.

And the “increase in dead-cell fraction” value ([7]; 0.003162 µM)?
The value was 0.0428.

And the “increase in dead-cell fraction” value ([7]; 0.01 µM)?
The value was 0.193.

What about the “increase in dead-cell fraction” value ([7]; 0.03162 µM) of the same cell line?
The value was 0.338.

What about the “increase in dead-cell fraction” value ([7]; 0.1 µM) of the same cell line?
Its value is 0.269.

What about the “increase in dead-cell fraction” value ([7]; 0.3162 µM) of the same cell line?
The value was 0.106.

And the “increase in dead-cell fraction” value ([7]; 1 µM)?
Its value is 0.13.

And the “increase in dead-cell fraction” value ([8]; 0.001 µM)?
The value was 0.0052.

And the “increase in dead-cell fraction” value ([8]; 0.003162 µM)?
Its value is 0.0077.

What about the “increase in dead-cell fraction” value ([8]; 0.01 µM) of the same cell line?
Its value is 0.0145.

What about the “increase in dead-cell fraction” value ([8]; 0.03162 µM) of the same cell line?
The value was 0.0159.

What about the “increase in dead-cell fraction” value ([8]; 0.1 µM) of the same cell line?
The value was 0.0213.

And the “increase in dead-cell fraction” value ([8]; 0.3162 µM)?
The value was 0.0196.

And the “increase in dead-cell fraction” value ([8]; 1 µM)?
The value was 0.0239.

What about the “increase in dead-cell fraction” value ([8]; 3.162 µM) of the same cell line?
Its value is 0.0464.

And the “increase in dead-cell fraction” value ([8]; 10 µM)?
Its value is 0.006.

What about the “GR50, 72 h” value [9] of the same cell line?
Its value is less than 0.001 µM.

What about the “GR50, 72 h” value [10] of the same cell line?
The value was greater than 1 µM.

And the “GR50, 72 h” value [11]?
Its value is greater than 10 µM.

And the “GR50, 72 h” value [12]?
The value was 0.0016 µM.

What about the “GR50, 72 h” value [13] of the same cell line?
Its value is 0.0515 µM.

And the “GR50, 72 h” value [14]?
Its value is 0.00062 µM.

What about the “GR50, 72 h” value [15] of the same cell line?
The value was 0.0528 µM.

And the “GR50, 72 h” value [16]?
Its value is 0.00565 µM.

What about the “GR50, 72 h” value [17] of the same cell line?
Its value is 3.33 µM.

What about the “GR50, 72 h” value [18] of the same cell line?
Its value is greater than 10 µM.

And the “GR50, 72 h” value [19]?
The value was greater than 10 µM.

What about the “GR50, 72 h” value [20] of the same cell line?
The value was greater than 10 µM.
